Assay results from US12624044B2, “SMARCA degraders and uses thereof” (Kymera Therapeutics, Inc., priority 2019, dated 2026).

Biological target: SMARCA2 (Homo sapiens, UniProt P51531)
Test: MSD SMARCA2 degradation in NCI-H1299 cell line (24 h)
Assay type: cell-based
Parameters: HC: NCI-H1299 cells treated with DMSO; host or cells: NCI-H1299
Settings: for Dmax: NCI-H1299, NCI-H1299 cells; for DC50: NCI-H1299 cells, read-out: SMARCA2 MSD H1299 degradation 24 h: External Abs-DC50
Protocol: Example 32. MSD SMARCA2 Degradation in […] Cell Line
Cell Culture: Cells were cultured in exponential growth phase.
Compound Preparation and Treatment: NCI-H1299 cells were seeded into the 96-well plate at 4.0*10^4 cells per 100 ul per well. Incubate the plate in the incubator overnight. The next day, compounds were diluted to designed stock concentration by TECAN, then perform a 3 fold, 9-point dilution via transferring 15 uL compound into 30 μL DMSO using Apricot. 200 nL diluted compound from compound source plate were transferred into the 96-intermediate plate as designated by using Echo550, followed with 100 ul culture medium to make the 2× compound solution. Cell plate were changed with 80 ul of fresh culture medium and 80 ul of 2× compound solution was added into the well to achieve the final designed concentration. Cell plate was then shaken at 720 rpm for 5 min and incubated for 24 hours in the incubator.
Sample Preparation: Media was aspirated from the cultures and the plate was washed with PBS twice. 60 ul of pre-chilled PIPA lysis buffer (Boston BioProducts BP-115D) with protease inhibitor were directly added into the well to lyze the cells for 20 minutes at 4° C. Cell lysates were collected.
MSD Procedure: The MSD plate was coated with 40 ul cell lysate and incubated at 4° C. overnight. The next day, the MSD coated bare plate was washed 3 times with 150 ul 1×TBST per well, blocked with 150 ul of blocking buffer per well, and shaken for 1 hour at RT, 600 rpm. Blocking buffer was 3% Blocker A in TBST. MSD plate was then washed 3 times with 150 ul 1×TBST per well and Primary Detection antibody (Rabbit anti-SMARCA2/BRM antibody, 100 μg/ml, ab223735) was added to a final [conc.]: 0.3 ug/ml, 25 ul/well and shaken for 1 hour at RT, 600 rpm. Antibody was prepared in Antibody Detection buffer (1% Blocker A in 1×TBST). The MSD plate was then washed 3 times with 150 ul 1×TBST per well. Secondary Detection antibody (SULFO-TAG anti-species antibody) was then added to a final [conc.]: 1 ug/ml, 25 ul/well, and shaken for 1 hour at RT, 600 rpm. Antibodies were prepared in Antibody Detection buffer (1% Blocker A in 1×TBST). MSD plate was washed 3 times with 150 ul 1×TBST per well and 2×MSD reading buffer was added, 150 ul per well, and diluted from 4× with water. MSD instrument was then read.
Data Analysis: The percentage of relative level of SMARCA2 level was calculated following equation below.
LC: A2780, SMARCA2 negative cells. HC: NCI-H1299 cells treated with DMSO.
The letter codes for the percentage of SMARCA2 degradation after 24 hours (Dmax %) include: A (>90% degradation), B (>70-90 degradation), C (50-70 degradation), and D (<50% degradation).

Sequence of SMARCA2 (P51531 whole entry): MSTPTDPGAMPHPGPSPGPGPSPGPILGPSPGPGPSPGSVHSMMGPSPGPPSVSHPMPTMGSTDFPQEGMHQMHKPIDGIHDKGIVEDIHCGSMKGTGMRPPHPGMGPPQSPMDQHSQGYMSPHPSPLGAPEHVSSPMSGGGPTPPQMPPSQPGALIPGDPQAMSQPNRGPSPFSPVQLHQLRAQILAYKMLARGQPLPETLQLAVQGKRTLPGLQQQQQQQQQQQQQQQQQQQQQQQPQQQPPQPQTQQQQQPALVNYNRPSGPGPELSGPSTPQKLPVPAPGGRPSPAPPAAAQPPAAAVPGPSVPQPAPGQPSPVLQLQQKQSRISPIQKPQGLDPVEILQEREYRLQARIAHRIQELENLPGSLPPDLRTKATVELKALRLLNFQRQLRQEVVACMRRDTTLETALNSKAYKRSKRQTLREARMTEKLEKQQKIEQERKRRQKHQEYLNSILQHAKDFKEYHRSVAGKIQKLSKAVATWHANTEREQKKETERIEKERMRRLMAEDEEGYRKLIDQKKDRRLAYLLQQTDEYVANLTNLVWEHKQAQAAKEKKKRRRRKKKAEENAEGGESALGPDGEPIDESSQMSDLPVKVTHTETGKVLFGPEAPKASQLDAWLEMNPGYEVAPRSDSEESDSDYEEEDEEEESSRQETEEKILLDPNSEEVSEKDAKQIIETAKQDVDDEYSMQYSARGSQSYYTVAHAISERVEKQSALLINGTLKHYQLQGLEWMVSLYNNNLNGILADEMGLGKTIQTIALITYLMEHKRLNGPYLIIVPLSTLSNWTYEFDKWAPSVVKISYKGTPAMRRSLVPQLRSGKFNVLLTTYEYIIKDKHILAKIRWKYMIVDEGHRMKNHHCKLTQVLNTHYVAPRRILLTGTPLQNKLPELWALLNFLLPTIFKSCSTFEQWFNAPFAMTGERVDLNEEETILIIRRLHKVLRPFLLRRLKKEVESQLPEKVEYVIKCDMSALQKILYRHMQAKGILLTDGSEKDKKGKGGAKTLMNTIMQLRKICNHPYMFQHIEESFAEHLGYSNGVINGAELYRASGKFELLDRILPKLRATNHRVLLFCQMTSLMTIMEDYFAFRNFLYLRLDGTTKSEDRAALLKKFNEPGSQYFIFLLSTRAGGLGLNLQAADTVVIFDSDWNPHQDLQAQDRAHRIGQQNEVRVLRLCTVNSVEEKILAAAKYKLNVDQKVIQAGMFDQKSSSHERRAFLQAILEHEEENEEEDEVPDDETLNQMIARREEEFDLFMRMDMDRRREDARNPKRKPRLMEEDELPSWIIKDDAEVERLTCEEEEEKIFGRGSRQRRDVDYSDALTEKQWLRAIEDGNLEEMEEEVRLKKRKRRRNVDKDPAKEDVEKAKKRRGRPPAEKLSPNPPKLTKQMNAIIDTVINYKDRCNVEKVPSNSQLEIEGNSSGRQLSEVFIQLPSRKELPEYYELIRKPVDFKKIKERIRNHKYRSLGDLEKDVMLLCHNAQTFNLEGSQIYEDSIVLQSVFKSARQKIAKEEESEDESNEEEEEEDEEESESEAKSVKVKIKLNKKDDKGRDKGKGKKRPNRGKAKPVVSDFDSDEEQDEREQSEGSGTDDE

| Compound | Dmax | DC50 |
| --- | --- | --- |
| O=C(CCCCCCCCOc1ccc(N2C[C@H]3C[C@@H]2CN3/C=C/C(=O)c2ccccc2O)nc1)NCCOCCOCCNc1cccc2c1C(=O)N(C1CCC(=O)NC1=O)C2=O (some centres unmarked) [I-7] |  | > 1000 nM |
| CN[C@@H](C)C(=O)N[C@H](C(=O)N1Cc2cc(OCCOCCOCCOCCNC(=O)CCCCCCCCOc3ccnc(N4C[C@H]5C[C@@H]4CN5/C=C/C(=O)c4ccccc4O)c3)ccc2C[C@H]1C(=O)N[C@@H]1CCCc2ccccc21)C(C)(C)C [I-204] |  | > 1000 nM |
| CC(c1ccc(C(=O)NCCOCCOCCOCCOCCCc2ccc3c(c2)n(C)c(=O)n3C2CCC(=O)NC2=O)cc1)n1cc(-c2cc(-c3ccccc3O)nnc2N)cn1 (centres unmarked) [I-13] |  | > 1000 nM |
| Cc1ncsc1-c1ccc(CNC(=O)[C@@H]2C[C@@H](O)CN2C(=O)[C@@H](NC(=O)COCCOCCOCCNC(=O)CCCCCCCCOc2ccc(N3C[C@H]4C[C@@H]3CN4/C=C/C(=O)c3ccccc3O)nc2)C(C)(C)C)cc1 [I-228] |  | > 1000 nM |
| Cn1c(=O)n(C2CCC(=O)NC2=O)c2ccc(CCCOCCOCCOCCOCCNC(=O)CCCCCCCCOc3ccnc(N4C[C@H]5C[C@@H]4CN5/C=C/C(=O)c4ccccc4O)c3)cc21 (some centres unmarked) [I-21] |  | > 1000 nM |
| Cn1c(=O)n(C2CCC(=O)NC2=O)c2cccc(CCCOc3cccc(CN4CCN(c5cc(-c6ccccc6O)nnc5N)CC4)c3)c21 (centres unmarked) [I-95] | < 50% | > 1000 nM |
| Cn1c(=O)n(C2CCC(=O)NC2=O)c2ccc(CCCOCCOCCOCCNC(=O)CCCOc3cccc(N4C[C@H]5C[C@@H]4CN5/C=C/C(=O)c4ccccc4O)n3)cc21 (some centres unmarked) [I-26] |  | > 1000 nM |
| Cn1c(=O)n(C2CCC(=O)NC2=O)c2ccc(CN3CCN(Cc4cnc(N5C6CCC5CN(c5cc(-c7ccccc7O)nnc5N)C6)nc4)CC3)cc21 (centres unmarked) [I-163] | < 50% | > 1000 nM |
| Cn1c(=O)n(C2CCC(=O)NC2=O)c2ccc(CCCOCCOCCNC(=O)CCCOc3cccc(N4C[C@H]5C[C@@H]4CN5/C=C/C(=O)c4ccccc4O)n3)cc21 (some centres unmarked) [I-25] |  | > 1000 nM |
| COc1cc(C(=O)NCCCCCCCCCCCNCc2ccc(N3CCN(c4cc(-c5ccccc5O)nnc4N)CC3)cc2)ccc1NC(=O)[C@@H]1N[C@@H](CC(C)(C)C)[C@](C#N)(c2ccc(Cl)cc2F)[C@H]1c1cccc(Cl)c1F [I-234] | 50 to 70% | > 1000 nM |
| Cn1c(=O)n(C2CCC(=O)NC2=O)c2ccc(CCCOCCOCCOCCOCCOCCNC(=O)CCCCCCCCOc3ccnc(N4C[C@H]5C[C@@H]4CN5/C=C/C(=O)c4ccccc4O)c3)cc21 (some centres unmarked) [I-22] |  | > 1000 nM |
| CN[C@@H](C)C(=O)N[C@H](C(=O)N1CCC[C@H]1c1nc(C(=O)c2cccc(OCCOCCOCCNCc3ccc(-c4cc(-c5ccccc5O)nnc4N)cc3)c2)cs1)C1CCCCC1 [I-198, (S)—N—((S)-2-((S)-2-(4-(3-(2-(2-(2-((4-(3-amino-6-(2-hydroxyphenyl)pyridazin-4-yl)benzyl)amino)ethoxy)ethoxy)ethoxy)benzoyl)thiazol-2-yl)pyrrolidin-1-yl)-1-cyclohexyl-2-oxoethyl)-2-(methylamino)propanamide] | 50 to 70% | > 1000 nM |
| O=C1CCC(n2c(=O)n(CCCCCCCc3cn(Cc4cccc(N5C[C@H]6C[C@@H]5CN6/C=C/C(=O)c5ccccc5O)n4)nn3)c3ccccc32)C(=O)N1 (some centres unmarked) [I-57] | < 50% | > 1000 nM |
| Cn1c(=O)n(C2CCC(=O)NC2=O)c2ccc(CCCN3CCC(c4cnc(N5C6CCC5CN(c5cc(-c7ccccc7O)nnc5N)C6)nc4)CC3)cc21 (centres unmarked) [I-167, 3-[5-[3-[4-[2-[3-[3-amino-6-(2-hydroxyphenyl)pyridazin-4-yl]-3,8-diazabicyclo[3.2.1]octan-8-yl]pyrimidin-5-yl]-1-piperidyl]propyl]-3-methyl-2-oxo-benzimidazol-1-yl]piperidine-2,6-dione] | > 90% | < 100 nM |
| CN(CC#Cc1cnc(N2C3CCC2CN(c2cc(-c4ccccc4O)nnc2N)C3)nc1)CCCc1ccc2c(c1)n(C)c(=O)n2C1CCC(=O)NC1=O (centres unmarked) [I-195, 3-[5-[3-[3-[2-[3-[3-amino-6-(2-hydroxyphenyl)pyridazin-4-yl]-3,8-diazabicyclo[3.2.1]octan-8-yl]pyrimidin-5-yl]prop-2-ynyl-methyl-amino]propyl]-3-methyl-2-oxo-benzimidazol-1-yl]piperidine-2,6-dione] | > 90% | < 100 nM |
| Cn1c(=O)n(C2CCC(=O)NC2=O)c2ccc(CCCCCCCN3CCC(n4cc(-c5cc(-c6ccccc6O)nnc5N)cn4)CC3)cc21 (centres unmarked) [I-184] | < 50% | > 1000 nM |
| CN(CCCc1cnc(N2C3CCC2CN(c2cc(-c4ccccc4O)nnc2N)C3)nc1)CCCc1ccc2c(c1)n(C)c(=O)n2C1CCC(=O)NC1=O (centres unmarked) [I-161] | > 90% | < 100 nM |
| Cn1c(=O)n(C2CCC(=O)NC2=O)c2cccc(CCCCCCc3cn(Cc4cccc(N5C[C@H]6C[C@@H]5CN6/C=C/C(=O)c5ccccc5O)n4)nn3)c21 (some centres unmarked) [I-51] | < 50% | > 1000 nM |

The remaining lines, values ahead:

| Dmax | DC50 | Compound |
| --- | --- | --- |
| 70 to 90% | > 1000 nM | O=C1CCC(N2C(=O)c3cccc(OCCCc4cn(CCCc5cccc(N6C[C@H]7C[C@@H]6CN7/C=C/C(=O)c6ccccc6O)n5)nn4)c3C2=O)C(=O)N1 (some centres unmarked) [I-70] |
| 70 to 90% | < 100 nM | Cn1c(=O)n(C2CCC(=O)NC2=O)c2ccc(CN3CCCC(n4cc(-c5cc(-c6ccccc6O)nnc5N)cn4)C3)cc21 (centres unmarked) [I-177] |
| 50 to 70% | < 100 nM | Cn1c(=O)n(C2CCC(=O)NC2=O)c2ccc(CCCN3CCN(Cc4ccc(-c5cc(-c6ccccc6O)nnc5N)cc4)CC3)cc21 (centres unmarked) [I-139] |
| 70 to 90% | 100 to 500 nM | Cn1c(=O)n(C2CCC(=O)NC2=O)c2cccc(CCCCc3cn(Cc4cccc(N5C[C@H]6C[C@@H]5CN6/C=C/C(=O)c5ccccc5O)n4)nn3)c21 (some centres unmarked) [I-49] |
| 70 to 90% | 100 to 500 nM | Cn1c(=O)n(C2CCC(=O)NC2=O)c2ccc(CCCCCCCCN3CCC(Cn4cc(-c5cc(-c6ccccc6O)nnc5N)cn4)CC3)cc21 (centres unmarked) [I-147] |
| 50 to 70% | 100 to 500 nM | Cn1c(=O)n(C2CCC(=O)NC2=O)c2cccc(CCCCCOc3ccc(CN4CCN(c5cc(-c6ccccc6O)nnc5N)CC4)cc3)c21 (centres unmarked) [I-92] |
| 70 to 90% | < 100 nM | Cn1c(=O)n(C2CCC(=O)NC2=O)c2ccc(CCCN3CCCC(n4cc(-c5cc(-c6ccccc6O)nnc5N)cn4)C3)cc21 (centres unmarked) [I-178] |
| 50 to 70% | 501 to 1000 nM | Cn1c(=O)n(C2CCC(=O)NC2=O)c2cccc(CCCCCCOc3cccc(CN4CCN(c5cc(-c6ccccc6O)nnc5N)CC4)c3)c21 (centres unmarked) [I-98] |
| > 90% | < 100 nM | Cn1c(=O)n(C2CCC(=O)NC2=O)c2cccc(CCCCCN3CCC(n4cc(-c5cc(-c6ccccc6O)nnc5N)cn4)CC3)c21 (centres unmarked) [I-175] |
| 70 to 90% | 100 to 500 nM | Cn1c(=O)n(C2CCC(=O)NC2=O)c2cccc(CCCOCC3CN(Cc4ccc(N5CCN(c6cc(-c7ccccc7O)nnc6N)CC5)cc4)C3)c21 (centres unmarked) [I-124] |
| 50 to 70% | 100 to 500 nM | Cn1c(=O)n(C2CCC(=O)NC2=O)c2cccc(CCCOCCN3CCN(Cc4ccc(-c5cc(-c6ccccc6O)nnc5N)cc4)CC3)c21 (centres unmarked) [I-106] |
| 50 to 70% | 100 to 500 nM | Cn1c(=O)n(C2CCC(=O)NC2=O)c2cccc(CCCCCOc3cccc(CN4CCN(c5cc(-c6ccccc6O)nnc5N)CC4)c3)c21 (centres unmarked) [I-97] |
| 50 to 70% | 100 to 500 nM | Cn1c(=O)n(C2CCC(=O)NC2=O)c2ccc(CCCOCCOCCN3CCN(Cc4ccc(-c5cc(-c6ccccc6O)nnc5N)cc4)CC3)cc21 (centres unmarked) [I-135] |
| 70 to 90% | 100 to 500 nM | Cn1c(=O)n(C2CCC(=O)NC2=O)c2ccc(CN3CC[C@@H](OCCCN4CCN(Cc5ccc(-c6cc(-c7ccccc7O)nnc6N)cc5)CC4)C3)cc21 (some centres unmarked) [I-157] |
